# Measurements from patent US8822486B2, “Spiropiperidine compounds” (Eli Lilly and Company, priority 2009, dated 2014).
# Target: T1, PPARγ (Homo sapiens, UniProt P37231)
# T1 sequence (P37231 1-505): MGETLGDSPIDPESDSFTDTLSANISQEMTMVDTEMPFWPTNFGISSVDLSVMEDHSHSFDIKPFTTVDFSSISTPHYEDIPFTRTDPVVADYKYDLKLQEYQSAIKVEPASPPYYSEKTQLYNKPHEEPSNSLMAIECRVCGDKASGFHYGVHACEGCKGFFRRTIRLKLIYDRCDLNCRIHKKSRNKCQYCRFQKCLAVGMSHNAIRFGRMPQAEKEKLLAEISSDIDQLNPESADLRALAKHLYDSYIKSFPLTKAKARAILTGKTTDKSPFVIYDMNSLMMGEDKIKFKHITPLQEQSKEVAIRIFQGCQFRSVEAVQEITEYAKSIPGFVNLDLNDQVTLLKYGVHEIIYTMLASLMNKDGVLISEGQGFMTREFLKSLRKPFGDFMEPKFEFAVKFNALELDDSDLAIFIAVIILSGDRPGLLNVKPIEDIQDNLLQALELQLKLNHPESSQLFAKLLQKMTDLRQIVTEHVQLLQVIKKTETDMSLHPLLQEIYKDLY
# T1 sequence (P19793 1-462 partner): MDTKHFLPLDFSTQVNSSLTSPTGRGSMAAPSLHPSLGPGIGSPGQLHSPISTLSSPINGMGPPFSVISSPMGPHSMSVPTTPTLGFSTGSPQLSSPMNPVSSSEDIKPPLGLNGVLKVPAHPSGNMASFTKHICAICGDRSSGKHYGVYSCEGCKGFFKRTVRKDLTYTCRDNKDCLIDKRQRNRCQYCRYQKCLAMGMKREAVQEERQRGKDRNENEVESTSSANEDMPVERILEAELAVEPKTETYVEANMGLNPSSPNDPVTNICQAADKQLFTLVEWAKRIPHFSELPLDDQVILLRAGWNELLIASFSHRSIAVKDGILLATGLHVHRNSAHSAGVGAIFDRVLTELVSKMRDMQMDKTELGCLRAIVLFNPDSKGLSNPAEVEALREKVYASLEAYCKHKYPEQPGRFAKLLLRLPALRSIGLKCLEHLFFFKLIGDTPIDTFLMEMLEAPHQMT
# Test: PPARγ reporter functional assay in CV1 cells
# Format: cell-based
# Conditions: examined up to 10 μM, luciferase reporter, 24 hours
# Source text: Gal4 PPARα, Gal4 PPARδ, and PPARγ reporter functional assays are also used to monitor the selectivity of exemplified compounds. CV1 cells, which are derived from the renal tissue of an African green monkey, are transfected with various receptor and reporter plasmids using Fugene. For the Gal4 PPARα and PPARδ assays, a reporter plasmid containing five tandem copies of the yeast transcription protein Gal4 response element, cloned upstream of a firefly luciferase gene driven by the major late promoter of adenovirus, is transfected together with a Simian Virus 40 (SV40) driven plasmid constitutively expressing a hybrid protein containing the Gal4 DNA binding domain (DBD), and either the PPARα or PPARδ ligand binding. For the PPARγ assay, plasmids encoding PPARγ and RXRα, both driven by a cytomegalovirus (CMV) promoter are transfected together with a plasmid containing luciferase reporter cDNA driven by the TK promoter and a receptor response element (2×PPRE). Cells are transfected in T225 cm^2 cell culture flasks in DMEM media with 5% charcoal-stripped FBS. […] After 24 hours incubation with compounds, cells are lysed and luciferase activity is determined as a measure of receptor activation by luminescence. […] The maximum percent stimulation is determined versus maximum stimulation obtained with 10 μM of an appropriate PPAR agonist reference compound. […]
structure (smiles),measurement,value
"CC#C[C@@H](CC(=O)O)c1ccc(OCc2ccc(CN3CCC4(C=Cc5ccccc54)CC3)s2)cc1 [Example 1, (3S)-3-[4-[[5-(Spiro[indene-1,4′-piperidine]-1′-ylmethyl)-2-thienyl]methoxy]phenyl]hex-4-ynoic acid]",functional activation of PPARγ,No functional activation
